Measurements from patent publication US6541467B1, “Thrombin inhibitors having a lactam at P3” (Corvas International, Inc., priority 2000, dated 2003).
pIC50, pKi: −log10 of the molar value.

What was measured:
Type in all cases: biochemical
Factor Xa = molecular target: T1, Factor Xa (Homo sapiens, UniProt P00742); assay: Factor Xa chromogenic enzyme assay; details: read-out: fXa IC50
T1 construct: purchased Enzyme Research Laboratories, Inc. (South Bend, Ind.)
Protocol: (§1) The ability of compounds of the present invention to act as a selective inhibitor of thrombin activity was assessed by determining the concentration of test-compound which inhibited the activity of this enzyme by 50%, (IC50), and comparing this value to that determined for all or some of the following related serine proteases: recombinant tissue plasminogen activator (rt-PA), plasmin, activated protein C, chymotrypsin, factor Xa and trypsin.
(§2) The buffer used for all assays was HBSA (10 mM HEPES, pH 7.5, 150 mM sodium chloride, 0.1% bovine serum albumin).
(§3) The assay for IC50 determinations was conducted by combining in appropriate wells of a Corning microtiter plate, 50 microliters of HBSA, 50 microliters of the test compound at a specified concentration (covering a broad concentration range) diluted in HBSA (or HBSA alone for V0 (uninhibited velocity) measurement), and 50 microliters of the enzyme diluted in HBSA. Following a 30 minute incubation at ambient temperature, 50 microliters of the substrate at the concentrations specified below were added to the wells, yielding a final total volume of 200 microliters. The initial velocity of chromogenic substrate hydrolysis was measured by the change in absorbance at 405 nm using a Thermo Max® Kinetic Microplate Reader over a 5 minute period in which less than 5% of the added substrate was utilized. The concentration of added inhibitor which caused a 50% decrease in the initial rate of hydrolysis was defined as the IC50 value.
Factor Xa catalytic activity was determined using the chromogenic substrate S-2765 (N-benzyloxycarbonyl-D-arginine-L-glycine-L-arginine-p-nitroaniline), obtained from DiaPharma Group (Franklin, Ohio). All substrates were reconstituted in deionized water prior to use. […] Purified human Factor X was obtained from Enzyme Research Laboratories, Inc. (South Bend, Ind.) and Factor Xa (FXa) was activated and prepared from it as described [Bock, P. E., Craig, P. A., Olson, S. T., and Singh, P. Arch. Biochem. Biophys. 273:375-388 (1989)]. The enzyme was diluted into HBSA prior to assay in which the final concentration was 0.25 nM.

[1] = molecular target: T2, bovine pancreatic trypsin (Bos taurus, UniProt P00760); assay: Trypsin chromogenic enzyme assay
T2 sequence (P00760 24-246): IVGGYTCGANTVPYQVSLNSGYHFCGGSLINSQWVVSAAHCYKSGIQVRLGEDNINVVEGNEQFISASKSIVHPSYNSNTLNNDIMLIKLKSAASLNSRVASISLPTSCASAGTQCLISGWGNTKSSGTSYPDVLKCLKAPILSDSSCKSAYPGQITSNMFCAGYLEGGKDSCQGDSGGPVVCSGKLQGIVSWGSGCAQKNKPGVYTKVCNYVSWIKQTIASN
Protocol: as §1, §2, §3
Trypsin catalytic activity was determined using the chromogenic substrate, S-2222 (benzoyl-L-isoleucine-L-glutamic acid-[gamma-methyl ester]-L-arginine-p-nitroanilide), which was obtained from DiaPharma Group. […] Purified (3×-crystallized; TRL3) bovine pancreatic trypsin was obtained from Worthington Biochemical Corp. The enzyme was reconstituted in deionized water and diluted into HBSA prior to assay in which the final concentration was 0.5 nM.

human plasmin = molecular target: T3, human plasmin (Homo sapiens, UniProt P00747); assay: Plasmin chromogenic enzyme assay
T3 construct: Purified human plasmin; purchased Enzyme Research Laboratories, Inc
Protocol: as §1, §2, §3
Plasmin catalytic activity was determined using the chromogenic substrate, S-2366 [L-pyroglutamyl-L-prolyl-L-arginine-p-nitroaniline hydrochloride], which was obtained from DiaPharma group. The substrate was made up in deionized water followed by dilution in HBSA prior to the assay in which the final concentration was 300 micromolar (about 2:.5-times Km). Purified human plasmin was obtained from Enzyme Research Laboratories, Inc. The enzyme was diluted into HBSA prior to assay in which the final concentration was 1.0 nM.

human α-thrombin = molecular target: T4, human α-thrombin (Homo sapiens, UniProt P00734); assay: Thrombin (fIIa) chromogenic enzyme assay; details: for pIC50: 0 min
T4 construct: Purified human α-thrombin; purchased Enzyme Research Laboratories, Inc
Protocol: For screening compounds using these assays, the compounds of the present invention are dissolved in buffer to give solutions containing concentrations such that assay concentrations range from 0 to 100 micromolar. In the assays for thrombin, plasmin, t-PA, aPC, chymotrypsin, and trypsin, a chromogenic synthetic substrate is added to a solution containing test compound and the enzyme of interest and the residual catalytic activity of that enzyme is determined spectrophometrically. The IC50 of a compound of the present invention is determined from the rate of substrate turnover caused by the specific enzyme being measured. IC50 is the concentration of test compound which gives 50% inhibition of the rate of substrate turnover. Likewise, the Ki of a compound of the present invention is determined from the rate of substrate turnover caused by the specific enzyme being measured at various […] concentrations. Example A provides exemplars of in vitro assays used to select the compounds of the present invention.
as §1, §2
as §3, with “Following a 30 minute incubation at ambient temperature, 50 microliters of the substrate at the concentrations specified below were added to the wells, yielding a final total volume of 200 microliters.” left out
Enzyme activity was determined using the chromogenic substrate, Pefachrome t-PA (CH3SO2-D-hexahydrotyrosine-glycyl-L-Arginine-p-nitroaniline, obtained from Pentapharm Ltd.). The substrate was reconstituted in deionized water prior to use. Purified human α-thrombin was obtained from Enzyme Research Laboratories, Inc. The buffer used for all assays was HBSA (10 mM HEPES, pH 7.5, 150 mM sodium chloride, 0.1% bovine serum albumin).
The initial velocity of Pefachrome t-PA hydrolysis was measured by the change in absorbance at 405 nm using a Thermo Max® Kinetic Microplate Reader over a 5 minute period in which less than 5% of the added substrate was utilized. The concentration of:added inhibitor which caused a 50% decrease in the initial rate of hydrolysis was defined as the IC50 value.

T1 sequence (P00742 235-488 limits assumed): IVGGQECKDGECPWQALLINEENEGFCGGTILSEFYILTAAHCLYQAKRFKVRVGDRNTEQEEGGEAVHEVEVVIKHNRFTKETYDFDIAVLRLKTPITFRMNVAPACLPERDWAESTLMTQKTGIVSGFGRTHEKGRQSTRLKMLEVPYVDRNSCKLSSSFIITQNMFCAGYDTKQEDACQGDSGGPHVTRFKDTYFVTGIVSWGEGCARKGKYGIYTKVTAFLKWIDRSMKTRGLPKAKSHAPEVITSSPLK
T1 sequence (P00742 41-179 partner limits assumed): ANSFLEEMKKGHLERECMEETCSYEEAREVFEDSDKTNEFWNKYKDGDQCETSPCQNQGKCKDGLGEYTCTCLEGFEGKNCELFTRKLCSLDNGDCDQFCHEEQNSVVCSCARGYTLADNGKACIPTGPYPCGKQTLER
T3 sequence (P00747 581-810 limits assumed): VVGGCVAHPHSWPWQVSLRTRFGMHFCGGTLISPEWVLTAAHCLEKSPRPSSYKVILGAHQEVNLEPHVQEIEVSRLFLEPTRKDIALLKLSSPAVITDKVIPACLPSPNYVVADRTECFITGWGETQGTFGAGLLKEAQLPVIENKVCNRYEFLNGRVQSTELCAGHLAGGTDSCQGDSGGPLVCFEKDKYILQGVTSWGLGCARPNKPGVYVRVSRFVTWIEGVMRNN
T3 sequence (P00747 97-580 partner limits assumed): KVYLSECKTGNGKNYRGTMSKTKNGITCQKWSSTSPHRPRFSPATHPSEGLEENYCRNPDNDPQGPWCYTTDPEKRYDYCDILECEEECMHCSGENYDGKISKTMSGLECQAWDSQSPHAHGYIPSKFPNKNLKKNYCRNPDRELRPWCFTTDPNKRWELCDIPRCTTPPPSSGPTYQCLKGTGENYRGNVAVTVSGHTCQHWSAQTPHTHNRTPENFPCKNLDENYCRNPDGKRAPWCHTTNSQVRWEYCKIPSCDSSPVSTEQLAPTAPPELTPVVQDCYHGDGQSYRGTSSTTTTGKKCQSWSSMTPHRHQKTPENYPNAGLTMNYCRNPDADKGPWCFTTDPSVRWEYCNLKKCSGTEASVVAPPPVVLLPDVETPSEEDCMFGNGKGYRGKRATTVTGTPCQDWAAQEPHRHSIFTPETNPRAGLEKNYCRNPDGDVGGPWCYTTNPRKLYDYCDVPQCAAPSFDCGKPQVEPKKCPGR

Compound | pIC50 (Factor Xa) | pIC50 [1] | pIC50 (human plasmin) | pKi (human α-thrombin) | pIC50 (human α-thrombin)
N/C(=N\O)c1ccc(CNC(=O)[C@@H]2Cc3cccc4c3N2C(=O)[C@@H](NS(=O)(=O)c2ccc3c(c2)CCO3)CC4)cc1 [Example 60, N-(2,3-Dihydrobenzo[b]furanyl-5-sulfonyl)-Haic-aminomethylphenyl-N-hydroxyamidine] | ≤ 5.60 | ≤ 5.60 | ≤ 5.60 | ≤ 5.60 | ≤ 5.60
N=C(N)c1ccc(CNC(=O)[C@@H]2Cc3cccc4c3N2C(=O)[C@@H](NS(=O)(=O)c2ccc3c(c2)CCO3)CC4)cc1 [Example 61, N-(2,3-Dihydrobenzo[b]furanyl-5-sulfonyl)-Haic-aminomethylphenylamidine] | 5.60 to 6.52 | ≥ 7.00 | ≤ 5.60 | ≥ 7.00 | ≥ 7.00
N[C@H]1CC[C@H](CNC(=O)CN2CCCC[C@H](NS(=O)(=O)Cc3ccccc3)C2=O)CC1 [Example 65] | ≤ 5.60 | ≤ 5.60 | ≤ 5.60 | 6.52 to 7.00 | 5.60 to 6.52
Cc1nc(N)ccc1CNC(=O)CN1CCCC[C@H](NS(=O)(=O)Cc2ccccc2)C1=O [Example 66] | ≤ 5.60 | ≤ 5.60 | ≤ 5.60 | ≥ 7.00 | 5.60 to 6.52
N=C(N)c1ccc(CNC(=O)CN2CCCC[C@H](NS(=O)(=O)Cc3ccccc3)C2=O)cc1 [Example 67] | 5.60 to 6.52 | 5.60 to 6.52 | ≤ 5.60 | ≥ 7.00 | 6.52 to 7.00
